Entries after “also recorded” stand apart in the source; their conditions may differ.
How the values were obtained:
[1] = system: Pseudomonas aeruginosa PAO1 (wt and PA2652 mutant); experiment: Growth experiments with ligands as sole carbon source; format: cell-based; conditions: M9 minimal medium, 10 mM carbon source
Description: To evaluate the physiological relevance of the ligands identified, we first addressed the question of whether they could support bacterial growth as sole carbon source. To this end, we conducted growth experiments of the wild type (wt) strain and a mutant defective in PA2652 in minimal medium supplemented with the different ligands as sole carbon sources.
Bacterial strains used in this study are listed in Supplementary Table S3. Pseudomonas aeruginosa PAO1 and its derivative strains were routinely grown at 37 °C in Luria Broth (LB; 5 g yeast extract l^−1, 10 g Bacto tryptone l^−1 and 5 g NaCl l^−1) or M9 medium supplemented with 1 mM MgSO4, 6 mg l^−1 Fe-citrate, trace elements[81] and 15 mM glucose as carbon source. For growth experiments to assess the capacity of PA2652-LBD ligands to support growth a sole C-source, PAO1 cells were pre-cultured overnight in M9 medium supplemented with 10 mM glucose and washed twice with M9 medium salts, prior to the inoculation of M9 medium containing10 mM of the different carbon sources. When necessary, the pH of the medium was adjusted to 7.0 prior to inoculation. Bacterial growth over the time was monitored using Bioscreen Microbiological Growth Analyser (Oy Growth Curves Ab Ltd, Helsinki, Finland). Escherichia coli strains were grown at 37 °C in LB. Escherichia coli DH5α was used as a host for gene cloning. When appropriate, antibiotics were used at the following final concentrations (in µg ml^−1): kanamycin, 25 (E. coli strains) and 100 (Pseudomonas strains); tetracycline, 40.

PA2652-LBD [2] = target: T1, PA2652-LBD (Pseudomonas aeruginosa, UniProt Q9I0I6); experiment: biochemical; format: binding, Pseudomonas aeruginosa PAO1; conditions: for Binding in ITC: YES/NO
T1 construct: The DNA fragment encoding the LBD of PA2652 (Lys^34–Thr^205) was amplified; His-tag (vector-encoded by pET28b(+) via NdeI site); made in house; host or cells: Escherichia coli BL21 (DE3)
Method: To unambiguously determine ligand binding, we conducted Isothermal Titration Calorimetry (ITC)[40] binding studies with the purified protein.
Experiments were conducted on a VP-microcalorimeter (Microcal, Amherst, MA, USA) at 20 °C. PA2652-LBD was dialyzed overnight against TNG buffer, adjusted to a concentration of 20–35 μM and placed into the sample cell of the instrument. The protein was titrated by the injection of 9.6–14.4 μl aliquots of 1–20 mM ligand solutions that were prepared in TNG buffer (20 mM Tris/HCl, 150 mM NaCl, 10% (v/v) glycerol, pH 6.8) immediately before use. The mean enthalpies measured from the injection of ligands into buffer were subtracted from raw titration data prior to data analysis with the MicroCal version of ORIGIN. Data were fitted with the “One binding site model”.

[3] = system: Pseudomonas aeruginosa PAO1; experiment: Quantitative capillary chemotaxis assay, wild type; format: cell-based; conditions: for Role of PA2652 ligand (chemoattractant or antagonist): authors' classification from chemotaxis results; for Concentration of maximum chemotactic response / Chemotactic response: wt PAO1; for Chemotactic response: ligands at 10 µM to 100 mM
Method: Secondly, we assessed the capacity of the ligands identified to induce chemotaxis. To this end, we carried out quantitative capillary chemotaxis assays using the wt strain and PA2652 ligands at concentrations ranging from 10 µM to 100 mM.
Overnight cultures of P. aeruginosa strains were diluted to an OD660 of 0.05 in MS medium (30 mM Na2HPO4, 20 mM KH2PO4, 25 mM NH4NO3, 1 mM MgSO4) supplemented with 6 mg l^−1 Fe-citrate, trace elements[81] and 15 mM glucose as carbon source, and grown at 37 °C with orbital shaking (200 rpm). At an OD660 of 0.4 ([…]) cultures were centrifuged at 1,700 × g for 5 min and the resulting pellet was washed twice with chemotaxis buffer (50 mM potassium phosphate, […], 0.05% (v/v) glycerol, pH 7.0). Subsequently, the cells were resuspended in the same buffer, adjusted to an OD660 of 0.1 and 230 µl aliquots of the bacterial cultures were placed into 96-well plates. For the quantitative assays, one-microliter capillary tubes (Microcaps, Drummond Scientific, Ref. P1424) were heat-sealed at one end and filled with either the chemotaxis buffer (negative control) or chemotaxis buffer containing the chemoeffectors to test. The capillaries were immersed into the bacterial suspensions at its open end. After 30 min at room temperature, capillaries were removed from the bacterial suspensions, rinsed with sterile water and the content expelled into 1 ml of M9 medium salts. Serial dilutions were plated onto M9 minimal medium (containing the appropriate antibiotics) supplemented with 15 mM glucose as carbon source. The number of colony forming units was determined after overnight incubation. In all cases, data were corrected with the number of cells that swam into buffer containing capillaries.

PA2652-LBD [4] = target: T1, PA2652-LBD; format: binding, Pseudomonas aeruginosa PAO1; conditions: for Tm increases: DSF screening as described in text, 2 °C threshold for significant hits; for Tm Shift: Biolog arrays PM1, PM2A, PM3b, PM4a, PM5, relative to ligand-free protein Tm 45.5 °C
Description: To identify ligands that may bind to the LBD of PA2652, we conducted Differential Scanning Fluorimetry (DSF) based high throughput ligand screening assays as described previously[37],[38]. DSF analyses permit the determination of melting temperature (Tm) values, which corresponds to the temperature at which half the protein is in its native conformation whereas the remaining half has undergone thermal unfolding. Since ligand binding typically enhances the thermal stability of proteins, increases in the Tm in the presence of ligands may be indicative of specific binding. We screened 450 different compounds available in five different ligand arrays from Biolog (Supplementary Fig. S3). The screened collection included different carbon and nitrogen sources, phosphorous and sulfurous compounds as well as different nutrient supplements.
Thermal shift assays were performed on a MyIQ2 Real-Time PCR instrument (BioRad). Ligands from the different compound arrays (Biolog, Hayward, CA, USA; see Supplementary Fig. S3) were dissolved in 50 μl of MilliQ water, which, according to the manufacturer, corresponds to a concentration of 10–20 mM. Screening was performed using 96 wells plates. Each well contained 20 μM of protein dialyzed into TNG buffer (20 mM Tris/HCl, 150 mM NaCl, 10% (v/v) glycerol, pH 6.7), 2.5 μl of the resuspended compounds and SYPRO Orange (Life Technologies) at 5× concentration. In a single well (ligand free protein) the compound was substituted by water. Samples were heated from 23 °C to 85 °C at a scan rate of 1 °C/min. The protein unfolding curves were obtained by following the changes in SYPRO Orange fluorescence. Melting temperatures were determined using the first derivative values from the raw fluorescence data.

[5] = system: Pseudomonas aeruginosa PAO1; experiment: Capillary chemotaxis assay in presence of antagonists; format: cell-based; conditions: for Effect of antagonist on chemotaxis toward L-alanine: 1 mM L-alanine, 20 or 40 mM antagonist; for Effect of antagonist on chemotaxis toward L-malic acid: 1 mM L-malic acid, 10, 20 and 40 mM antagonist in suspension and capillary
Method: To this end we conducted chemotaxis assays toward L-malic acid in the absence or presence of 10, 20 and 40 mM of citraconic and D,L-methylsuccinic acids (that were added to both, the bacterial suspension and the chemoattractant solution). […] To verify whether the presence of antagonists may have a global inhibitory effect on the chemotactic properties of P. aeruginosa we performed assays toward L-alanine, a chemoattractant recognized by the receptors PctA and PctB[15], in the presence antagonists.
To determine the effect of antagonists in the chemotactic properties of PAO1, the assay was performed as previously described with two minor modifications: (i) Capillary tubes were filled with chemotaxis buffer containing 1 mM of the chemoattractants (L-malic acid or L-alanine) and 10–40 mM of the antagonists (methylsuccinic or citraconic acids); (ii) Bacterial cultures were washed with chemotaxis buffer and cells were finally resuspended in the same buffer but containing equimolar concentrations of methylsuccinic/citraconic acids to those present in the capillary tubes.

T1 sequence (Q9I0I6 34-205): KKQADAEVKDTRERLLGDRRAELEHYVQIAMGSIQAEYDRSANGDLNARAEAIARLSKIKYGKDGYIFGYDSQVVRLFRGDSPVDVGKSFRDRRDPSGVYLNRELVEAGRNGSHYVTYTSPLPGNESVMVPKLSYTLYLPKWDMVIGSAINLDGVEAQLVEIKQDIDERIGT

SMILES: O=C(O)CC(Br)C(=O)O (racemic) [D,L-bromosuccinic acid]
- Ability to support bacterial growth as sole carbon source [1]: poorly supported bacterial growth
- Kd (PA2652-LBD [2]): 1240 ± 700 µM
- Binding in ITC (PA2652-LBD [2]): YES
- Role of PA2652 ligand (chemoattractant or antagonist) [3]: chemoattractants
- Concentration of maximum chemotactic response [3]: 10 mM
- Chemotactic response [3]: Significant responses; also recorded: significant chemotaxis
- Tm increases (PA2652-LBD [4]): more than 2 °C

SMILES: CC(O)(CC(=O)O)C(=O)O (racemic) [D,L-citramalic acid]
- Ability to support bacterial growth as sole carbon source [1]: able to efficiently sustain growth
- Kd (PA2652-LBD [2]): 61 ± 4 µM
- Binding in ITC (PA2652-LBD [2]): YES
- Concentration of maximum chemotactic response [3]: 10 mM
- Chemotactic response [3]: Significant responses; also recorded: significant chemotaxis
- Tm increases (PA2652-LBD [4]): hits

SMILES: CC(CC(=O)O)C(=O)O (racemic) [D,L-methylsuccinic acid]
- Ability to support bacterial growth as sole carbon source [1]: able to efficiently sustain growth
- Kd (PA2652-LBD [2]): 224 ± 10 µM
- Binding to PA2652-LBD in ITC (in words) (PA2652-LBD [2]): detection of binding
- Binding in ITC (PA2652-LBD [2]): YES
- Chemotactic response [3]: Minor but statistically significant responses
- Chemotactic response ([3]; listed as methylsuccinic acid): very minor responses
- Effect of antagonist on chemotaxis toward L-alanine [5]: did not significantly alter the chemotaxis
- Effect of antagonist on chemotaxis toward L-malic acid [5]: reduced the chemotaxis toward L-malic acid

SMILES: C[C@@](O)(CC(=O)O)C(=O)O [D-citramalic acid]
- Binding to PA2652-LBD in ITC (in words) (PA2652-LBD [2]): no binding was observed

SMILES: O=C(O)C[C@@H](O)C(=O)O [D-malic acid]
- Binding to PA2652-LBD in ITC (in words) (PA2652-LBD [2]): did not show binding; also recorded: No binding
- Tm Shift (PA2652-LBD [4]): No significant shift
- Tm increases (PA2652-LBD [4]): did not cause significant increases

SMILES: C[C@H](CC(=O)O)C(=O)O [D-methylsuccinic acid]
- Binding to PA2652-LBD in ITC (in words) (PA2652-LBD [2]): no binding was observed

SMILES: O=C(O)/C=C/C(=O)O [Fumaric acid]
- Binding to PA2652-LBD in ITC (in words) (PA2652-LBD [2]): No binding
- Binding to PA2652-LBD in ITC (in words) (PA2652-LBD [2]; listed as fumaric acid): absence of binding
- Tm Shift (PA2652-LBD [4]): No significant shift

SMILES: O=C(O)CCCC(=O)O [Glutaric acid]
- Tm Shift (PA2652-LBD [4]): No significant shift

SMILES: N[C@@H](CC(=O)O)C(=O)O [L-Aspartic acid]
- Binding to PA2652-LBD in ITC (in words) (PA2652-LBD [2]; listed as L-aminosuccinic acid): No binding
- Binding to PA2652-LBD in ITC (in words) (PA2652-LBD [2]; listed as aminosuccinic acid): absence of binding
- Tm Shift (PA2652-LBD [4]): No significant shift

SMILES: C[C@](O)(CC(=O)O)C(=O)O [L-citramalic acid]
- Role of PA2652 ligand (chemoattractant or antagonist) [3]: chemoattractants

SMILES: C[C@@H](CC(=O)O)C(=O)O [L-methylsuccinic acid]
- Role of PA2652 ligand (chemoattractant or antagonist) [3]: antagonists

SMILES: O=C(O)[C@H](O)[C@@H](O)C(=O)O [L-tartaric acid]
- Binding to PA2652-LBD in ITC (in words) (PA2652-LBD [2]): No binding
- Binding to PA2652-LBD in ITC (in words) (PA2652-LBD [2]; listed as tartaric acid): absence of binding
- Tm Shift (PA2652-LBD [4]): No significant shift

SMILES: C[C@@H](O)[C@H](N)C(=O)O [L-threonine]
- Binding to PA2652-LBD in ITC (in words) (PA2652-LBD [2]): No binding
- Tm Shift (PA2652-LBD [4]): No significant shift

SMILES: O=C(O)CC(=O)C(=O)O [Oxaloacetic acid]
- Binding to PA2652-LBD in ITC (in words) (PA2652-LBD [2]): No binding
- Binding to PA2652-LBD in ITC (in words) (PA2652-LBD [2]; listed as oxalacetic acid): absence of binding
- Tm Shift (PA2652-LBD [4]): No significant shift

SMILES: O=C(O)CCC(=O)O [Succinic acid]
- Binding to PA2652-LBD in ITC (in words) (PA2652-LBD [2]): No binding
- Binding to PA2652-LBD in ITC (in words) (PA2652-LBD [2]; listed as succinic acid): absence of binding
- Tm Shift (PA2652-LBD [4]): No significant shift

SMILES: C/C(=C/C(=O)O)C(=O)O [citraconic acid]
- Ability to support bacterial growth as sole carbon source [1]: could not be used as sole carbon source
- Kd (PA2652-LBD [2]): 210 ± 15 µM
- Binding in ITC (PA2652-LBD [2]): YES
- Role of PA2652 ligand (chemoattractant or antagonist) [3]: antagonists
- Chemotactic response [3]: did not cause any chemotactic response and no
- Effect of antagonist on chemotaxis toward L-alanine [5]: did not significantly alter the chemotaxis
- Effect of antagonist on chemotaxis toward L-malic acid [5]: reduced the chemotaxis toward L-malic acid
- Tm increases (PA2652-LBD [4]): hits
